Values of other authors in patent publication US20230270707A1, “ORAL LIQUID PHARMACEUTICAL COMPOSITIONS OF ISOTRETINOIN” (IDRS Labs Private Limited, priority 2020, published 2023).
Where two headings read alike, the source gives them in different places.

Columns and labels:
[1] = target plasma level of isotretinoin ≥2 μM

CC1=C(/C=C/C(C)=C/C=C/C(C)=C\C(=O)O)C(C)(C)CCC1 [isotretinoin, 13-cis retinoic acid]
patients who achieved the target Cmax ([1]; drug extracted from capsules and mixed with food or given via nasogastric tube): 55% | patients who achieved the target Cmax ([1]; patients able to swallow the capsules): 92.5% | solubility in water: practically insoluble in water
